# According to patent US10865208B2, “ATG7 inhibitors and the uses thereof” (Millennium Pharmaceuticals, Inc., priority 2016, dated 2020):
# Molecular target: recombinant human His-ATG7 enzyme (Homo sapiens (Human), UniProt O95352)
# Test: ATG7 Enzyme Assay (HTRF/FRET, ATG3-GST and Flag-Gabarap)
# Type: biochemical
# Details: for inhibition at 0.123 µM: Concentration 0.123 μM; for inhibition at 0.123 µM / inhibition at 0.111 µM: read-out: Percent Inhibition; for inhibition at 0.111 µM: Concentration 0.111 μM
# How it was run: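 0.15 nM His-ATG7 was reacted with 5 nM ATG3-GST, 5 nM Flag-Gabarap and 10 μM ATP in HEPES pH 7.5 containing MgCl2, GSH and TCEP for 105 min at 24° C, then stopped with EDTA/KF. Eu-anti-Flag and anti-GST-APC HTRF was read after 2 h. Results are given as single-concentration % inhibition or IC50.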
# Chain of recombinant human His-ATG7 enzyme (O95352 whole entry): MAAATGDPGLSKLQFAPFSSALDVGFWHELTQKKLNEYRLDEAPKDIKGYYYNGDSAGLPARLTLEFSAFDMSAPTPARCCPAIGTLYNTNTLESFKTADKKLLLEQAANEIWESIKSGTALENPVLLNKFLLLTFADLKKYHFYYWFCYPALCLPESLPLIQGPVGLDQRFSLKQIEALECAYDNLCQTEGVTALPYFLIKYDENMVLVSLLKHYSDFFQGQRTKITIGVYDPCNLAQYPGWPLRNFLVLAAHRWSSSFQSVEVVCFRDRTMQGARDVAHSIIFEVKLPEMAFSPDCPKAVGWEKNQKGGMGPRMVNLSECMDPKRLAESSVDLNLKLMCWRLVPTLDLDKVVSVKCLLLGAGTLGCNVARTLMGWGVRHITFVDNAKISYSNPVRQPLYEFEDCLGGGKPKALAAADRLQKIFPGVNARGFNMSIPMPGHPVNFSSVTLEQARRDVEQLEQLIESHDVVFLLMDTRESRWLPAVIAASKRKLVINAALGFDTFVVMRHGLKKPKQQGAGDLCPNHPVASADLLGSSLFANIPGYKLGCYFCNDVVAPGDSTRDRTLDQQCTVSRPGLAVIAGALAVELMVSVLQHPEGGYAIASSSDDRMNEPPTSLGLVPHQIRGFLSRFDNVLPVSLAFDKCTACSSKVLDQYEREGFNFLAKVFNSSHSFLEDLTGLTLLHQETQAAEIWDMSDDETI
IC50 [µM],inhibition at 0.123 µM [%],inhibition at 0.111 µM [%],Structure (SMILES)
0.02 to 0.05,83,–,"Nc1ncnc2c1c(SCc1ccc(Cl)o1)nn2[C@@H]1O[C@H](COS(N)(=O)=O)[C@@H](O)[C@H]1O [Compound I-73, [(2R,3S,4R,5R)-5-(4-amino-3-{[(5-chloro-2-furyl)methyl]sulfanyl}-1H-pyrazolo[3,4-d]pyrimidin-1-yl)-3,4-dihydroxytetrahydrofuran-2-yl]methyl sulfamate]"
0.05 to 0.1,61,–,"Cc1ccccc1Sc1nn([C@@H]2O[C@H](COS(N)(=O)=O)[C@@H](O)[C@H]2O)c2ncnc(N)c12 [Compound I-74, [(2R,3S,4R,5R)-5-{4-amino-3-[(2-methylphenyl)sulfanyl]-1H-pyrazolo[3,4-d]pyrimidin-1-yl}-3,4-dihydroxytetrahydrofuran-2-yl]methyl sulfamate]"
0.1 to 0.5,41,–,"Nc1ncnc2c1c(OCCCl)nn2[C@@H]1O[C@H](COS(N)(=O)=O)[C@@H](O)[C@H]1O [Compound I-75, {(2R,3S,4R,5R)-5-[4-amino-3-(2-chloroethoxy)-1H-pyrazolo[3,4-d]pyrimidin-1-yl]-3,4-dihydroxytetrahydrofuran-2-yl}methyl Sulfamate]"
0.1 to 0.5,31,–,"Nc1ncnc2c1c(OCc1ccccc1)nn2[C@@H]1O[C@H](COS(N)(=O)=O)[C@@H](O)[C@H]1O [Compound I-76, {(2R,3S,4R,5R)-5-[4-amino-3-(benzyloxy)-1H-pyrazolo[3,4-d]pyrimidin-1-yl]-3,4-dihydroxytetrahydrofuran-2-yl}methyl Sulfamate]"
0.02 to 0.05,85,–,"CC(C)CSc1nn([C@@H]2O[C@H](COS(N)(=O)=O)[C@@H](O)[C@H]2O)c2ncnc(N)c12 [Compound I-77, {(2R,3S,4R,5R)-5-[4-amino-3-(isobutylsulfanyl)-1H-pyrazolo[3,4-d]pyrimidin-1-yl]-3,4-dihydroxytetrahydrofuran-2-yl}methyl sulfamate]"
0.02 to 0.05,80,–,"Nc1ncnc2c1c(Sc1ccccc1Cl)nn2[C@@H]1O[C@H](COS(N)(=O)=O)[C@@H](O)[C@H]1O [Compound I-78, [(2R,3S,4R,5R)-5-{4-amino-3-[(2-chlorophenyl)sulfanyl]-1H-pyrazolo[3,4-d]pyrimidin-1-yl}-3,4-dihydroxytetrahydrofuran-2-yl]methyl sulfamate]"
< 0.02,85,–,"Nc1ncnc2c1c(I)nn2[C@@H]1O[C@H](COS(N)(=O)=O)[C@@H](O)[C@H]1O [Compound I-79, [(2R,3S,4R,5R)-5-(4-amino-3-iodo-1H-pyrazolo[3,4-d]pyrimidin-1-yl)-3,4-dihydroxytetrahydrofuran-2-yl]methyl sulfamate]"
0.1 to 0.5,51,–,"CN(C)CCSc1nn([C@@H]2O[C@H](COS(N)(=O)=O)[C@@H](O)[C@H]2O)c2ncnc(N)c12 [Compound I-80, [(2R,3S,4R,5R)-5-(4-amino-3-{[2-(dimethylamino)ethyl]sulfanyl}-1H-pyrazolo[3,4-d]pyrimidin-1-yl)-3,4-dihydroxytetrahydrofuran-2-yl]methyl sulfamate]"
0.05 to 0.1,69,–,"Cc1occc1Sc1nn([C@@H]2O[C@H](COS(N)(=O)=O)[C@@H](O)[C@H]2O)c2ncnc(N)c12 [Compound I-81, [(2R,3S,4R,5R)-5-{4-amino-3-[(2-methyl-3-furyl)sulfanyl]-1H-pyrazolo[3,4-d]pyrimidin-1-yl}-3,4-dihydroxytetrahydrofuran-2-yl]methyl sulfamate]"
0.02 to 0.05,–,80,"Nc1ncnc2c1c(Sc1ccccc1)nn2[C@@H]1O[C@H](COS(N)(=O)=O)[C@@H](O)[C@H]1O [Compound I-82, {(2R,3S,4R,5R)-5-[4-amino-3-(phenylsulfanyl)-1H-pyrazolo[3,4-d]pyrimidin-1-yl]-3,4-dihydroxytetrahydrofuran-2-yl}methyl Sulfamate]"
0.02 to 0.05,82,–,"Nc1ncnc2c1c(SCC(F)(F)F)nn2[C@@H]1O[C@H](COS(N)(=O)=O)[C@@H](O)[C@H]1O [Compound I-83, [(2R,3S,4R,5R)-5-{4-amino-3-[(2,2,2-trifluoroethyl)sulfanyl]-1H-pyrazolo[3,4-d]pyrimidin-1-yl}-3,4-dihydroxytetrahydrofuran-2-yl]methyl sulfamate]"
0.05 to 0.1,62,–,"Nc1ncnc2c1c(Sc1cccc3ccccc13)nn2[C@@H]1O[C@H](COS(N)(=O)=O)[C@@H](O)[C@H]1O [Compound I-84, {(2R,3S,4R,5R)-5-[4-amino-3-(1-naphthylsulfanyl)-1H-pyrazolo[3,4-d]pyrimidin-1-yl]-3,4-dihydroxytetrahydrofuran-2-yl}methyl sulfamate]"
0.02 to 0.05,77,–,"Nc1ncnc2c1c(SC(F)F)nn2[C@@H]1O[C@H](COS(N)(=O)=O)[C@@H](O)[C@H]1O [Compound I-85, [(2R,3S,4R,5R)-5-{4-amino-3-[(difluoromethyl)sulfanyl]-1H-pyrazolo[3,4-d]pyrimidin-1-yl}-3,4-dihydroxytetrahydrofuran-2-yl]methyl sulfamate]"
0.05 to 0.1,64,–,"Nc1ncnc2c1c(SCC1(O)CCCCC1)nn2[C@@H]1O[C@H](COS(N)(=O)=O)[C@@H](O)[C@H]1O [Compound I-86, [(2R,3S,4R,5R)-5-(4-amino-3-{[(1-hydroxycyclohexyl)methyl]sulfanyl}-1H-pyrazolo[3,4-d]pyrimidin-1-yl)-3,4-dihydroxytetrahydrofuran-2-yl]methyl Sulfamate]"
0.05 to 0.1,58,–,"C[S+]([O-])c1nn([C@@H]2O[C@H](COS(N)(=O)=O)[C@@H](O)[C@H]2O)c2ncnc(N)c12 (stereo partly drawn) [Compound I-87, {(2R,3S,4R,5R)-5-[4-amino-3-(methylsulfinyl)-1H-pyrazolo[3,4-d]pyrimidin-1-yl]-3,4-dihydroxytetrahydrofuran-2-yl}methyl Sulfamate]"
0.02 to 0.05,78,–,"Nc1ncnc2c1c(SCCc1ccccc1)nn2[C@@H]1O[C@H](COS(N)(=O)=O)[C@@H](O)[C@H]1O [Compound I-88, [(2R,3S,4R,5R)-5-{4-amino-3-[(2-phenylethyl)sulfanyl]-1H-pyrazolo[3,4-d]pyrimidin-1-yl}-3,4-dihydroxytetrahydrofuran-2-yl]methyl sulfamate]"
< 0.02,–,86,"Cc1ccc(Sc2nn([C@@H]3O[C@H](COS(N)(=O)=O)[C@@H](O)[C@H]3O)c3ncnc(N)c23)cc1 [Compound I-89, [(2R,3S,4R,5R)-5-{4-amino-3-[(4-methylphenyl)sulfanyl]-1H-pyrazolo[3,4-d]pyrimidin-1-yl}-3,4-dihydroxytetrahydrofuran-2-yl]methyl sulfamate]"
0.02 to 0.05,84,–,"N#CCSc1nn([C@@H]2O[C@H](COS(N)(=O)=O)[C@@H](O)[C@H]2O)c2ncnc(N)c12 [Compound I-90, [(2R,3S,4R,5R)-5-{4-amino-3-[(cyanomethyl)sulfanyl]-1H-pyrazolo[3,4-d]pyrimidin-1-yl}-3,4-dihydroxytetrahydrofuran-2-yl]methyl sulfamate]"
